Assay results published in ChEMBL document CHEMBL5257124, “Design, synthesis and biological evaluation of novel indole-piperazine derivatives as antibacterial agents” (Bioorg Med Chem Lett, 2023).
In brackets after ≈: the same amount, converted by molar mass. Activity calls are given as the source filed them. The calls are words filed in the database; no cut-off is given here.

Legend:
[1] = tested on: Staphylococcus aureus; assay: Antibacterial activity against methicillin resistant Staphylococcus aureus ATCC 33591 assessed as reduction in bacterial growth; type: functional
[2] = tested on: Staphylococcus aureus; assay: Antibacterial activity against Staphylococcus aureus ATCC 25923 assessed as reduction in bacterial growth; type: functional
[3] = tested on: Bacillus cereus; assay: Antibacterial activity against Bacillus cereus assessed as reduction in bacterial growth; type: functional
[4] = tested on: Escherichia coli; assay: Antibacterial activity against Escherichia coli ATCC 25922 assessed as reduction in bacterial growth; type: functional
[5] = tested on: Pseudomonas syringae; assay: Antibacterial activity against Pseudomonas syringae pv. actinidiae assessed as bacterial growth inhibition; type: functional
[6] = tested on: Ralstonia solanacearum; assay: Antibacterial activity against Ralstonia solanacearum assessed as bacterial growth inhibition; type: functional
[7] = tested on: Staphylococcus aureus; assay: Bactericidal activity against methicillin resistant Staphylococcus aureus ATCC 33591 assessed as reduction in bacterial growth; type: functional
[8] = tested on: Staphylococcus aureus; assay: Bactericidal activity against Staphylococcus aureus ATCC 25923 assessed as reduction in bacterial growth; type: functional
[9] = tested on: Escherichia coli; assay: Bactericidal activity against Escherichia coli ATCC 25922 assessed as reduction in bacterial growth; type: functional
[10] = tested on: Staphylococcus aureus; assay: Antibacterial activity against methicillin resistant Staphylococcus aureus assessed as reduction in bacterial growth at 1 times MIC by time kill assay; type: functional, organism-based
[11] = tested on: Staphylococcus aureus; assay: Antibacterial activity against methicillin resistant Staphylococcus aureus assessed as reduction in bacterial growth at 8 times MIC measured at 24 hrs by time kill assay; type: functional, organism-based
[12] = tested on: Staphylococcus aureus; assay: Antibacterial activity against methicillin resistant Staphylococcus aureus assessed as reduction in bacterial growth at 8 times MIC measured at 12 hrs by time kill assay; type: functional; design: scale not given: the % may be the effect or the level left
[13] = tested on: Staphylococcus aureus; assay: Antibacterial activity against methicillin resistant Staphylococcus aureus assessed as reduction in bacterial growth at 1 microg/ml measured for 2 hrs; type: functional; details: dose 1 µg/ml
[14] = tested on: Staphylococcus aureus; assay: Antibacterial activity against methicillin resistant Staphylococcus aureus assessed as reduction in bacterial growth at 2 microg/ml measured for 2 hrs; type: functional; details: dose 2 µg/ml
[15] = tested on: Staphylococcus aureus; assay: Antibacterial activity against methicillin resistant Staphylococcus aureus assessed as reduction in bacterial growth at 8 microg/ml measured for 2 hrs; type: functional; details: dose 8 µg/ml
[16] = tested on: Staphylococcus aureus; assay: Antibacterial activity against methicillin resistant Staphylococcus aureus assessed as reduction in bacterial growth at 16 microg/ml measured for 2 hrs; type: functional; details: dose 16 µg/ml
[17] = tested on: BV-2; assay: Cytotoxicity against mouse BV-2 cells assessed as inhibition of cell growth at 20 to 50 microg/ml measured for 24 hrs by MTT assay; type: toxicity, cell-based; details: bv-2, 24 h, dose 20-50 µg/ml
[18] = tested on: PC-12; assay: Cytotoxicity against rat PC12 cells assessed as inhibition of cell growth at 20 to 50 microg/ml measured for 24 hrs by MTT assay; type: toxicity, cell-based; details: pc-12, 24 h, dose 20-50 µg/ml
[19] = tested on: Staphylococcus aureus; assay: Antibacterial activity against methicillin resistant Staphylococcus aureus assessed as reduction in bacterial growth at 2 times MIC measured at 24 hrs by time kill assay; type: functional; design: scale not given: the % may be the effect or the level left
[20] = tested on: Staphylococcus aureus; assay: Antibacterial activity against methicillin resistant Staphylococcus aureus assessed as reduction in bacterial growth at 4 times MIC measured at 24 hrs by time kill assay; type: functional; design: scale not given: the % may be the effect or the level left
[21] = tested on: Staphylococcus aureus; assay: Drug resistance against Staphylococcus aureus assessed as fold increase in MIC measured after 19 passaging for 19 days; type: functional; details: time 19 day
[22] = tested on: Staphylococcus aureus; assay: Antibacterial activity against methicillin resistant Staphylococcus aureus assessed as reduction in bacterial growth at 0.5 microg/ml measured for 2 hrs; type: functional; details: dose 0.5 µg/ml
[23] = biological target: Histone deacetylase 1 (Homo sapiens, UniProt Q13547); assay: Inhibition of full length C-terminal His/FLAG tagged human recombinant HDAC1 (1 to 482 residues) expressed in baculovirus-infected Sf9 cells using RHK-K(Ac)-AMC as substrate incubated for 2 hrs
Chain of Histone deacetylase 1 (Q13547 whole entry, the tested form may be a part): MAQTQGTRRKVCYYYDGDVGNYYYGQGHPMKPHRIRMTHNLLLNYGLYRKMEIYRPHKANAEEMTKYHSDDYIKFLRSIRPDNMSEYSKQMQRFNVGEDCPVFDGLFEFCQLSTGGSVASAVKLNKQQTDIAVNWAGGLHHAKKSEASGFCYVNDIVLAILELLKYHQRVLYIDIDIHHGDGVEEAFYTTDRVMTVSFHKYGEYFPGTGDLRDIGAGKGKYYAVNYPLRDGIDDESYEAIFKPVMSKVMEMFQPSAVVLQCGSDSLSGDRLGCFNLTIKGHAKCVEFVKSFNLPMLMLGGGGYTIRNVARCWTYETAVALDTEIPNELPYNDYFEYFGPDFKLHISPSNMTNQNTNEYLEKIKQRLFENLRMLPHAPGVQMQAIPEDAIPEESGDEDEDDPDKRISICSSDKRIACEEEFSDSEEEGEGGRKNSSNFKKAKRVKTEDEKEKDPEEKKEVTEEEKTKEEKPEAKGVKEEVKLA

Compound | MIC [1] [µg/mL] | MIC [2] [µg/mL] | MIC [3] [µg/mL] | MIC [4] [µg/mL] | MIC [5] [µg/mL] | MIC [6] [µg/mL] | MBC [7] [µg/mL] | MBC [9] [µg/mL] | other results
O=[N+]([O-])c1ccc2[nH]cc(CN3CCN(Cc4ccc(Cl)cc4Cl)CC3)c2c1 | 8 (≈ 19.1 µM) | 8 (≈ 19.1 µM) | 8 (≈ 19.1 µM) | 32 (≈ 76.3 µM) | 32 (≈ 76.3 µM) | 32 (≈ 76.3 µM) |  |  | 
COc1ccc2[nH]cc(CN3CCN(Cc4ccc(C(F)(F)F)cc4N4CCCC4)CC3)c2c1 | 8 (≈ 16.9 µM) | 16 (≈ 33.9 µM) | 16 (≈ 33.9 µM) | 32 (≈ 67.7 µM) | 16 (≈ 33.9 µM) | 16 (≈ 33.9 µM) |  |  | 
Cn1cc(CN2CCN(Cc3ccc(Cl)cc3Cl)CC2)c2cc([N+](=O)[O-])ccc21 | 8 (≈ 18.5 µM) | 8 (≈ 18.5 µM) | 8 (≈ 18.5 µM) | 64 (≈ 148 µM) | 64 (≈ 148 µM) | 32 (≈ 73.8 µM) |  |  | 
Cn1cc(CN2CCN(Cc3ccc(C(F)(F)F)cc3N3CCCC3)CC2)c2cc([N+](=O)[O-])ccc21 | 128 (≈ 255 µM) | 128 (≈ 255 µM) | 128 (≈ 255 µM) | 128 (≈ 255 µM) | 128 (≈ 255 µM) | 128 (≈ 255 µM) |  |  | 
Cn1cc(CN2CCN(Cc3ccc(C(F)(F)F)cc3N3CCCC3)CC2)c2cc(Br)ccc21 | 8 (≈ 14.9 µM) | 16 (≈ 29.9 µM) | 16 (≈ 29.9 µM) | 32 (≈ 59.8 µM) | 16 (≈ 29.9 µM) | 16 (≈ 29.9 µM) |  |  | 
Fc1ccc2[nH]cc(CN3CCN(Cc4ccc(C(F)(F)F)cc4N4CCCC4)CC3)c2c1 | 8 (≈ 17.4 µM) | 16 (≈ 34.7 µM) | 8 (≈ 17.4 µM) | 128 (≈ 278 µM) | 128 (≈ 278 µM) | 128 (≈ 278 µM) |  |  | 
Cn1cc(CN2CCN(Cc3ccc(Cl)cc3Cl)CC2)c2cc(Br)ccc21 | 4 (≈ 8.56 µM) | 8 (≈ 17.1 µM) | 8 (≈ 17.1 µM) | 16 (≈ 34.2 µM) | 16 (≈ 34.2 µM) | 32 (≈ 68.5 µM) | 8 (≈ 17.1 µM) | 16 (≈ 34.2 µM) | MBC [8]: 16 µg/mL (≈ 34.2 µM)
Cn1cc(CN2CCN(Cc3ccc(C(F)(F)F)cc3N3CCCC3)CC2)c2cc(C#N)ccc21 | 16 (≈ 33.2 µM) | 16 (≈ 33.2 µM) | 16 (≈ 33.2 µM) | 32 (≈ 66.4 µM) | 32 (≈ 66.4 µM) | 32 (≈ 66.4 µM) |  |  | 
O=C(O)c1cn(C2CC2)c2cc(N3CCNCC3)c(F)cc2c1=O [CIPROFLOXACIN] | 0.5 (≈ 1.51 µM) | 0.5 (≈ 1.51 µM) |  |  |  |  | 2 (≈ 6.04 µM) | 1 (≈ 3.02 µM) | Activity [10]: Active; Activity [11]: Active; Activity [12]: 99.9%; PAE [13]: 1.22 h; PAE [14]: 1.58 h
FC(F)(F)c1ccc(CN2CCN(Cc3c[nH]c4ccc(Cl)cc34)CC2)c(N2CCCC2)c1 | 4 (≈ 8.39 µM) | 4 (≈ 8.39 µM) | 4 (≈ 8.39 µM) | 16 (≈ 33.5 µM) | 8 (≈ 16.8 µM) | 8 (≈ 16.8 µM) | 8 (≈ 16.8 µM) | 32 (≈ 67.1 µM) | MBC [8]: 8 µg/mL (≈ 16.8 µM); Activity [11]: Active; PAE [15]: 0.36 h; PAE [16]: 0.61 h; Activity [17]: Non-Toxic; Activity [18]: Non-Toxic
GENTAMICIN | > 128 | 4 | 8 | 4 | 8 | 16 | > 128 | 4 | MBC [8]: 8 µg/mL
Clc1ccc(CN2CCN(Cc3c[nH]c4ccc(Br)cc34)CC2)c(Cl)c1 | 4 (≈ 8.83 µM) | 4 (≈ 8.83 µM) | 4 (≈ 8.83 µM) | 16 (≈ 35.3 µM) | 16 (≈ 35.3 µM) | 8 (≈ 17.7 µM) | 4 (≈ 8.83 µM) | 16 (≈ 35.3 µM) | MBC [8]: 8 µg/mL (≈ 17.7 µM); Activity [19]: 99.5%; Activity [20]: 99.9%; PAE [15]: 1.62 h; PAE [16]: 2.91 h; fold change (FC) [21]: <4; Activity [17]: Non-Toxic; Activity [18]: Non-Toxic
Cn1cc(CN2CCN(Cc3ccc(Cl)cc3Cl)CC2)c2cc(F)ccc21 | 8 (≈ 19.7 µM) | 8 (≈ 19.7 µM) | 8 (≈ 19.7 µM) | 32 (≈ 78.8 µM) | 32 (≈ 78.8 µM) | 32 (≈ 78.8 µM) |  |  | 
Cn1cc(CN2CCN(Cc3ccc(C(F)(F)F)cc3N3CCCC3)CC2)c2cc(F)ccc21 | 8 (≈ 16.9 µM) | 8 (≈ 16.9 µM) | 8 (≈ 16.9 µM) | 32 (≈ 67.4 µM) | 32 (≈ 67.4 µM) | 32 (≈ 67.4 µM) |  |  | 
Cn1cc(CN2CCN(Cc3ccc(C(F)(F)F)cc3N3CCCC3)CC2)c2cc(Cl)ccc21 | 64 (≈ 130 µM) | 32 (≈ 65.2 µM) | 32 (≈ 65.2 µM) | 64 (≈ 130 µM) | 64 (≈ 130 µM) | 64 (≈ 130 µM) |  |  | 
FC(F)(F)c1ccc(CN2CCN(Cc3c[nH]c4ccc(Br)cc34)CC2)c(N2CCCC2)c1 | 8 (≈ 15.3 µM) | 8 (≈ 15.3 µM) | 8 (≈ 15.3 µM) | 32 (≈ 61.4 µM) | 32 (≈ 61.4 µM) | 32 (≈ 61.4 µM) | 16 (≈ 30.7 µM) | 32 (≈ 61.4 µM) | MBC [8]: 16 µg/mL (≈ 30.7 µM)
Clc1ccc(CN2CCN(Cc3c[nH]c4ccc(Cl)cc34)CC2)c(Cl)c1 | 8 (≈ 19.6 µM) | 8 (≈ 19.6 µM) | 8 (≈ 19.6 µM) | 16 (≈ 39.1 µM) | 32 (≈ 78.3 µM) | 16 (≈ 39.1 µM) |  |  | 
N#Cc1ccc2[nH]cc(CN3CCN(Cc4ccc(C(F)(F)F)cc4N4CCCC4)CC3)c2c1 | 16 (≈ 34.2 µM) | 16 (≈ 34.2 µM) | 16 (≈ 34.2 µM) | 128 (≈ 274 µM) | 128 (≈ 274 µM) | 128 (≈ 274 µM) |  |  | 
CO[C@H]1/C=C/O[C@@]2(C)Oc3c(C)c(O)c4c(O)c(c(/C=N/N5CCN(C)CC5)c(O)c4c3C2=O)NC(=O)/C(C)=C\C=C\[C@H](C)[C@H](O)[C@@H](C)[C@@H](O)[C@@H](C)[C@H](OC(C)=O)[C@@H]1C [RIFAMPIN] | 0.25 (≈ 0.304 µM) | 0.25 (≈ 0.304 µM) |  | 4 (≈ 4.86 µM) |  |  | 1 (≈ 1.22 µM) | 8 (≈ 9.72 µM) | MBC [8]: 2 µg/mL (≈ 2.43 µM); Activity [10]: Active; Activity [11]: Active; Activity [12]: 99.9%; PAE [13]: 3.45 h; PAE [22]: 1.8 h
O=C1CN(Cc2ccc(C(=O)NO)cc2)C(=O)[C@H](Cc2c[nH]c3ccccc23)N1 |  |  |  |  |  |  |  |  | IC50 [23]: 405 nM
Cn1cc(CN2CCN(Cc3ccc(Cl)cc3Cl)CC2)c2cc(C#N)ccc21 | 8 (≈ 19.4 µM) | 8 (≈ 19.4 µM) | 8 (≈ 19.4 µM) | 32 (≈ 77.4 µM) | 32 (≈ 77.4 µM) | 16 (≈ 38.7 µM) |  |  | 
Fc1ccc2[nH]cc(CN3CCN(Cc4ccc(Cl)cc4Cl)CC3)c2c1 | 8 (≈ 20.4 µM) | 8 (≈ 20.4 µM) | 8 (≈ 20.4 µM) | 32 (≈ 81.6 µM) | 32 (≈ 81.6 µM) | 32 (≈ 81.6 µM) |  |  | 
Cn1cc(CN2CCN(Cc3ccc(Cl)cc3Cl)CC2)c2cc(Cl)ccc21 | 4 (≈ 9.46 µM) | 4 (≈ 9.46 µM) | 4 (≈ 9.46 µM) | 16 (≈ 37.8 µM) | 8 (≈ 18.9 µM) | 8 (≈ 18.9 µM) | 8 (≈ 18.9 µM) | 16 (≈ 37.8 µM) | MBC [8]: 8 µg/mL (≈ 18.9 µM); Activity [10]: Active; Activity [11]: Active; PAE [15]: 1.6 h; PAE [16]: 2.21 h; fold change (FC) [21]: <4; Activity [17]: Non-Toxic; Activity [18]: Non-Toxic
O=[N+]([O-])c1ccc2[nH]cc(CN3CCN(Cc4ccc(C(F)(F)F)cc4N4CCCC4)CC3)c2c1 | 16 (≈ 32.8 µM) | 16 (≈ 32.8 µM) | 16 (≈ 32.8 µM) | 32 (≈ 65.6 µM) | 32 (≈ 65.6 µM) | 32 (≈ 65.6 µM) |  |  | 
N#Cc1ccc2[nH]cc(CN3CCN(Cc4ccc(Cl)cc4Cl)CC3)c2c1 | 8 (≈ 20 µM) | 16 (≈ 40.1 µM) | 8 (≈ 20 µM) | 32 (≈ 80.1 µM) | 32 (≈ 80.1 µM) | 32 (≈ 80.1 µM) |  |  | 
